Experimental data: PMC10447463, “Data-mining unveils structure–property–activity correlation of viral infectivity enhancing self-assembling peptides” (Nature Communications, 2023)
Read-outs that look alike come from different tables or passages of the source.

Legend:
[1] = format: physicochemical; design: key to Fibril / Fibril Formation / TEM 2cat / Fibril: 1 = fibrils present; 0 non-fibrillar structures; conditions: for Fibril / Fibril Formation: 1 mg/mL, uranyl acetate stain, qualitative
[2] = tested on: HIV-1 infection of TZM-bl cells; assay: HIV-1 infectivity enhancement assay, β-galactosidase luminescence; format: cell-based; conditions: for Rel-EFC / Log10 Infection Rel EFC: 1.3 µM peptide; for Rel-EFC: infection relative to EF-C (QCKIKQIINMWQ = 1); for Log10 Infection Rel EFC: log10 of infection relative to EF-C; for Log Infectivity: Log10 infection relative to EF-C, TZM-bl cells, asymmetric std dev errors; for Log10 Infection Rel EF-C: HIV-1 infection of TZM-bl cells; for Abs. Inf.: absolute infection signal, HIV-1 on TZM-bl cells, β-galactosidase luminescence; for Log10 Inf. rel. to EF-C: log10 of HIV-1 infection of TZM-bl cells relative to EF-C (EF-C = 0)
[3] = Turbidity, derived count rate of scattered light; format: physicochemical; conditions: for Count Rate: derived count rate of scattered light (turbidity); for Log10 Count Rate: turbidity, derived count rate of scattered light, data of Figure 2D
[4] = Zeta-potential measurement; format: physicochemical
Procedure, shortened: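 Readout: zeta potential (mV) derived by Smoluchowski from measured electrophoretic mobility. Preformed aggregates (1 mg/mL peptide, PBS pH 7.4, RT for 1 d) were diluted into dilute KCl electrolyte (1 mM) shortly before analysis.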

[5] = FigS12 panel A, fibril category by TEM
[6] = TEM, 1 = fibrils present, 0 = non-fibrillar
[7] = TEM, 1 = fibrils present, 0 = non-fibrillar structures
[8] = Fig. S7 panel A (plotted against β-sheet content)
[9] = Fig. S7 panel B (plotted against CR), rounded to two decimals
[10] = Log10 of infection rate relative to EF-C, Figure 3A source data
[11] = infection rate relative to EF-C, log10, data of Figure 2D
[12] = infection rate relative to EF-C, log10, source data of Figure 2C
[13] = zeta-potential of peptide, source data of Figure 2C
[14] = zeta-potential of the peptide assemblies, mean, Figure 3A source data

| Substance | TEM 2cat ([1]; Fig S10 panel D) | Fibril ([1]; Fig S10 panel E) | TEM 2cat [1, 5] | Fibril ([1]; FigS12 panel B, TEM) | Fibril / Fibril Formation ([1]; TEM) | Fibril [1, 6] | Fibril [1, 7] | Rel-EFC [2] | Log10 Infection Rel EFC [2] | Log Infectivity [2, 8] | Log10 Infection Rel EF-C [2, 10] | Log10 Infection Rel EF-C [2, 11] | Log10 Infection Rel EF-C [2, 12] | Abs. Inf. [2] | Log10 Inf. rel. to EF-C [2] | Count Rate [3] | Log10 Count Rate [3] | Zeta-Pot. [4] | Zeta-Potential / mV [4, 13] | Zeta-Potential / mV [4, 14] | also measured |
| --- | --- | --- | --- | --- | --- | --- | --- | --- | --- | --- | --- | --- | --- | --- | --- | --- | --- | --- | --- | --- | --- |
| HLHLPLL | 0 | 0 | 0 | 0 | 0 | 0 | 0 | 0,01 | -2 | -1.9991 | -2 | -1.9991 | -1.9991 | 133.3 | -1.9991 | 200 | 2.301 | -9.053 | -5.247 mV | -9.05 mV | Log Infectivity [2, 9]: -2 |
| MKFM | 0 | – | 0 | 0 | 0 | 0 | 0 | 0,02 | -1,76 | -1.756 | -1.76 | -1.756 | -1.756 | 383.3 | -1.756 | 130.8 | 2.1165 | -16 | -9.2 mV | -16 mV | – |
| KIKIQIN | 1 | – | – | – | 1 | 1 | 1 | 0,27 | -0,58 | -0.5766 | -0.58 | -0.5766 | -0.5766 | – | -0.5766 | 43.43 | 1.638 | – | 4.4 mV | 3.34 mV | TEM 2cat ([1]; category: fibrils present or non-fibrillar): 1; Log10 of Rel to EFC (Feb2021) ([2]; Log10 of infection relative to EF-C, all peptides of FigS16): -0.58; Zeta-Pot. ([4]; zeta potential of peptide assemblies): 3.34 |
| CKFQC | 0 | 0 | 0 | 0 | 0 | 0 | 0 | 0,02 | -1,64 | -1.643 | -1.64 | -1.643 | -1.643 | 496.7 | -1.643 | 130.4 | 2.115 | -17.38 | -5.253 mV | -17.38 mV | Log Infectivity [2, 9]: -1.64 |
| QCKIKQII | 1 | – | 1 | 1 | 1 | 1 | 1 | 0,01 | -2,19 | -2.189 | -2.19 | -2.189 | -2.189 | 206.7 | -2.189 | 301 | 2.479 | 11 | 9.183 mV | 11 mV | – |
